One data set deals with AMPK. In words: Brain AMPK phosphorylation in mice fed metformin in the drinking water. In kind it is in vivo, mouse. To be noted: 5 mg/ml in the drinking water for 16-24 days. The procedure:
(§1) Cells were incubated with the respective substances as follows: Metformin (Sigma) at final concentrations up to 2.5 mM for 1 to >24 hours, okadaic acid (Sigma) at final concentrations from 1 nM to 10 nM for 4 h, Fostricien (Sigma) at final concentration of 1 μM for 4 h and AICAR (cell signalling) at final concentration of 5 mM for 0.5-16 h. For cell treatment without insulin, medium containing B27+insulin supplement was replaced with medium containing B27-supplement without insulin 24 h before treatment. […]
Mice were decapitated and brains were rapidly dissected in nitrogen. […]
(§2) Cell pellets were homogenized in Magic-Mix (48% UREA, 15 mM Tris-HCL pH 7.5, 8.7% Glycerin, 1% SDS, 0.004% Bromphenolblue, 143 mM Mercaptoethanol), sonicated and boiled for 5 min at 95° C. […] Antibodies used in this study were purchased from the following companies: Tau-5 (Biosource), anti-human PHF pSer202 (Thermo scientific), Tau pSer356 (Biosource), Tau pSer262 (Biosource), Tau pSer396 (Sigma), Actin (Sigma), ACC (cell signalling), ACC pSer79 (cell signalling), phospho-S6 ribosomal protein pSer241/244 (cell signalling), p70S6 Kinase (cell signalling), p70S6K pThr421/pSer424 (cell signalling), mTOR (cell signalling), AMPK (cell signallling, AMPK pThr172 (cell singnaling), HRP-anti-rabbit (Amersham), HRP-anti-mouse (Dianova). The resulting bands were quantified using Imagequant5.2. […]

The next data set has as its system primary cortical neurons. Put plainly: TUNEL assay on primary cortical neurons. Type of data set: cell-based, mouse. To be noted: increasing concentrations of metformin, concentrations sufficient to induce tau dephosphorylation. The procedure: Primary neurons were grown on coverslips with a density of 2×10^5 per 12 well. TUNEL assays were performed using TUNEL enzyme (Roche) and TUNEL label (Roche) following the manufacturer's instructions.

For another data set, the system named is ACC. Put plainly: Phosphorylation of the AMPK target ACC (Ser79) in primary cortical neurons. Type of data set: cell-based, mouse. Conditions: 2.5 mM metformin, increasing time intervals. The procedure: (§3) Primary cortical neurons were isolated from brain of wt or transgenic (Mapt^tm1(EGFP)klt Tg(MAPT)8cPdav/J; Jackson Laboratory) embryos at day 14.5. Cortices were collected in DMEM (Lonza) and cells were dissociated by incubation with Trypsin/EDTA for 6.5 min at 37° C. Cells were then diluted in neurobasal medium (Gibco-BRL) containing B27 supplement (Gibco BRL). Cells were plated at a density of 4.0×10^5 onto 0.2 mg/ml poly-D-lysin (Sigma) and 2 μg/ml Laminin (Sigma) coated 12 well plates. Neurons were incubated at 37° C. with 8% CO2. One hour after seeding a complete change of medium was performed. Later on, each 96 hours half volumes of the medium were replaced by fresh medium. After 7 days in culture neurons were treated.
as §1, §2

For data set [1], the system named is tau. In kind it is cell-based, mouse. The procedure:
as §3
Cells were incubated with the respective substances as follows: Metformin (Sigma) at final concentrations up to 2.5 mM for 1 to >24 hours, okadaic acid (Sigma) at final concentrations from 1 nM to 10 nM for 4 h, Fostricien (Sigma) at final concentration of 1 μM for 4 h and AICAR (cell signalling) at final concentration of 5 mM for 0.5-16 h. For cell treatment without insulin, medium containing B27+insulin supplement was replaced with medium containing B27-supplement without insulin 24 h before treatment. 3 groups of 2 mice were treated with or without 5 mg/l metformin in the drinking water.
(§4) Cell pellets were homogenized in Magic-Mix (48% UREA, 15 mM Tris-HCL pH 7.5, 8.7% Glycerin, 1% SDS, 0.004% Bromphenolblue, 143 mM Mercaptoethanol), sonicated and boiled for 5 min at 95° C. Proteins were resolved on 8 or 10% SDS gels and blotted onto PVDF-membranes (Roche). Antibodies used in this study were purchased from the following companies: Tau-5 (Biosource), anti-human PHF pSer202 (Thermo scientific), Tau pSer356 (Biosource), Tau pSer262 (Biosource), Tau pSer396 (Sigma), Actin (Sigma), ACC (cell signalling), ACC pSer79 (cell signalling), phospho-S6 ribosomal protein pSer241/244 (cell signalling), p70S6 Kinase (cell signalling), p70S6K pThr421/pSer424 (cell signalling), mTOR (cell signalling), AMPK (cell signallling, AMPK pThr172 (cell singnaling), HRP-anti-rabbit (Amersham), HRP-anti-mouse (Dianova). The resulting bands were quantified using Imagequant5.2. Statistical analyses were performed using SigmaStat software package (v 3.0, SPSS, USA). For timecourse or dose-response studies, data were analyses by one-way ANOVA with post hoc Dunnett's or Bonferonni test to accommodate for multiple comparisons. A Student's t-test was used for two-group comparisons, as appropriate.

Data set [2] has as its system tau. In words: Brain tau phosphorylation in mice fed metformin in the drinking water. Type of data set: in vivo, mouse. Conditions: 5 mg/ml in the drinking water for 16-24 days. The procedure:
as §1
Mice were decapitated and brains were rapidly dissected in nitrogen. Brains were homogenized in ice-cold lysis buffer containing 10 mmol/l Tris pH 7.5, 150 mM NaCl, 1 mM EDTA, 1 mM EGTA, 1% NP40, protease inhibitors(complete mini, Roche), phosphatase inhibitors (PhosStop, Roche). Lysates were sonicated and centrifuged at 25000 g for 10 min at 4° C.
as §4

For data set [3] the following is noted: 2 mg/ml in the drinking water fed to mice for 6 days; cited from earlier work.
The mark [4] stands for this setting: 2.5 mM, different time intervals, observed after 2-4 hours.

Each structure is given as a SMILES string. Read-outs that look alike come from different tables or passages of the source.

`CN(C)C(=N)N=C(N)N` [metformin, Metformin]: the “brain AMPK phosphorylation (pThr 172)” value in the data set on AMPK was “no induction”. Further, the “programmed cell death (percentage of apoptotic cells, TUNEL)” value in the data set with primary cortical neurons was “did not cause a significant increase”. The “ACC phosphorylation (Ser79)” value in the data set with ACC is “neither metformin (FIG. 4a) nor phenformin (FIG. 12) had an effect”. Further, the “effect on Ser202 phosphorylation of okadaic acid treated cells” value with tau [1] (10 nM okadaic acid prior to 2.5 mM metformin, 4 hours) is given as “no effect”. In the data set on tau [1] (100 nM, longer treatment (>24 hours)), the “phosphorylation of Ser202” value was “decreased slightly”. In the data set on tau [1] (1 μM fostriecin prior to 2.5 mM metformin, 4 hours), the “effect on Ser202 phosphorylation of fostriecin pre-treated cells” value is “did not have any effect”. In the data set on tau [1] (10 μM, longer treatment (>24 hours)), the “phosphorylation of Ser202” value is recorded as “significantly reduced”. For the same compound, the “phosphorylation of Ser202” value with tau [1] (2.5 mM metformin alone over 4 hours) is “decreased significantly”. In addition, the “de-phosphorylation of PP2A dependent tau epitopes, dependence on time and dosage” value with tau [1] (2.5 mM over time (Ser202, Ser262, Ser356), increasing concentration over 4 hours (Ser202)) is “increased with time (FIG. 2a) and dosage”. For the same compound, in the data set on tau [1] (setting [4]), the “phosphorylation of PP2A dependent tau epitope Ser202” value is “significant decrease”, the “phosphorylation of PP2A dependent tau epitope Ser262” value was “significant decrease” and the “phosphorylation of PP2A dependent tau epitope Ser356” value is given as “significant decrease”. The “phosphorylation of the PP2A insensitive epitope Ser396” value in the data set on tau [1] (2.5 mM, increasing time intervals) is on record as “did not change”. The “dephosphorylation of tau (Ser 202)” value with tau [1] (2.5 mM, medium without insulin) is “strong dephosphorylation effect”. In addition, in the data set on tau [2], the “brain de-phosphorylated form of tau at position Ser 202 (tau-1 antibody)” value is on record as “increase”, the “brain tau Ser202 phosphorylation” value is “significant decrease”, the “brain tau Ser262 phosphorylation” value is on record as “significant decrease” and the “brain tau Ser 396 phosphorylation (PP2A independent epitope)” value is recorded as “no effect”. The “level of metformin in the brain” value in data set [3] was 1000 nM.

The values are drawn from patent US20120184624A1, “Treatment of Alzheimer's Disease” (priority 2010, published 2012).
